Source: patent US20080089859A1, “ADMINISTRATION OF SLEEP RESTORATIVE AGENTS” (priority 2001, published 2008)
Marks after values point to notes of the source that are not given here.

Legend:
[1] = test system: patients with rheumatoid arthritis; settings: cited from earlier work
[2] = test system: patients with Ankylosing Spondylitis; assay: Treatment of patients with Ankylosing Spondylitis; format: in vivo, human; settings: six patients after lorazepam or pramipexole, off Methotrexate and steroids
Procedure: Six patients with Ankylosing Spondylitis were treated according to the present invention. […] The patients were administered lorazepam 1-2 mg qhs or pramipexole 0.5-3.0 mg qhs.

[3] = test system: rheumatoid arthritis (Ra) and Psoriatic arthritis (PsA) patients; assay: Open-label retrospective chart analysis of patients starting Etanercept, with sleep/fibromyalgia treatment (Example 1); format: in vivo, human
From the text: The effect of sleep disturbance and/or overt fibromyalgia (FM) on Etanercept (ENBREL®, Immunex) efficacy was monitored in an open-label, retrospective chart analysis of rheumatoid arthritis (Ra) and Psoriatic arthritis (PsA) patients starting Etanercept due to inadequate response to prior disease-modifying and steroid treatment. Sixty six (66) consecutive patients (19 males, 47 Females; 39 positive for rheumatoid factor for rheumatoid arthritis, 13 negative for rheumatoid factor for rheumatoid arthritis, 14 having PsA) were treated at a suburban, referral-based rheumatology clinic. The patients were monitored for swollen/tender joints (joint count, JC), fibromyalgia tender point score, restorative sleep quality, and concomitant medication use, before and after adding Etanercept treatment. Concomitant medication use included prednisone, methotrexate, non-steroidal anti-inflammatory drugs (NSAIDS), azothioprine, sulfasalazine, and hydroxychloroquine.
All patients with overt FM and non-restorative sleep were treated with options for fibromyalgia (FM), including Trazodone, Lorazepam, Clonazepam, Carisoprodol, and/or Pramipexole as needed to decrease FM pain and sleep disturbance as previously reported. (Arthritis & Rheumatology 43:9 A1599 (2000); Arthritis & Rheumatology 42:9 A385 (1999); Arthritis & Rheumatology 41:9 A1359 (1998).)
The patient criteria were as follows: The mean arthritis duration was 9.2±1.3 years. Etanercept use was 14±1.5 months. The average age of the patients was 50.5±4.3 years. Their average initial erythrocyte sedimentation rate (ESR) was 22.0±8.0. Previous DMARDs 2.4±0.3. Their initial Joint Count was as follows: PsA 8.3, Ra-8.1, and Ra+13.2 The disease groups were combined: 20 patients had active FM (aFM). 29 never had FM (no FR).

[4] = test system: rheumatoid arthritis (Ra) and Psoriatic arthritis (PsA) patients; assay: Study of Example 1 continued to 18 months (Example 2); format: in vivo, human
From the text: The study of Example 1 was continued to 18 months. […] Fibromyalgia was a surrogate for a lack of deep (e.g., stage IV) restorative sleep.
JC refers to the number of swollen tender joints.

[5] = test system: patient with chronic gout; assay: Treatment of a patient with chronic gout and severe synovitis; format: in vivo, human; settings: one patient; colchicine, hydroxychloroquine and Etanercept added together, before sleep agents
Procedure: Adding colchicine, hydroxychloroquine and Etanercept only allowed them to decrease prednisone to 15 mg qd.

Substance: Etanercept
- Patients who may not respond [1]: 15-20%
- Disease activity under continued Etanercept [2]: without evidence of active disease
- % Change Joint Count ([3]; No FM patients): −93.9 ± 1.9%
- % Change Methotrexate Dose ([3]; No FM patients): −89.5 ± 8.4%
- % Change Prednisone Dose ([3]; No FM patients): −96.3 ± 4.0%
- Δ Pred., prednisone dose after adding Etanercept ([3]; No FM patients (29), before 8.0): 8.0 → 0.3 mg/d
- Δ MTX, methotrexate dose after adding Etanercept ([3]; No FM patients (29), before 19.1): 19.1 → 2.0 mg/wk
- Δ Joint Count, value after adding Etanercept ([3]; No FM patients (29), before Etanercept 11.6): 11.6 → 0.7
- Medication Discontinued: Azathioprine/Sulfasalazine/Hydroxychloroquine (patients) ([3]; No FM patients, p 0.019 across groups): 10/11
- Medication Discontinued: NSAIDs (patients) ([3]; No FM patients, p 0.045 across groups): 6/7
- Δ Joint Count, value after adding Etanercept ([3]; aFM (active fibromyalgia) patients (20), before Etanercept 11.5, M-W P 0.066): 11.5 → 5.9 *
- Medication Discontinued: Azathioprine/Sulfasalazine/Hydroxychloroquine (patients) ([3]; aFM patients): 4/8
- Medication Discontinued: NSAIDs (patients) ([3]; aFM patients): 1/13
- Δ Pred., prednisone dose after adding Etanercept ([3]; aFM patients (20), before 10.3, M-W P 0.1): 10.3 → 5.9 # mg/d
- Δ MTX, methotrexate dose after adding Etanercept ([3]; aFM patients (20), before 15.0, M-W P 0.002): 15.0 → 13.3 ** mg/wk
- % Change Joint Count ([3]; aFM patients, M-W P 0.001): −47.8 ± 14.%
- % Change Prednisone Dose ([3]; aFM patients, M-W P 0.001): −48.5 ± 15.%
- % Change Methotrexate Dose ([3]; aFM patients, M-W P < 0.001): −11.3 ± 4.5%
- Δ Joint Count, value after adding Etanercept ([3]; iFM (inactive fibromyalgia) patients (17), before Etanercept 10.1): 10.1 → 0.5
- % Change Joint Count ([3]; iFM patients): −95.0 ± 1.9%
- % Change Methotrexate Dose ([3]; iFM patients): −100. ± 0.0%
- % Change Prednisone Dose ([3]; iFM patients): −94.5 ± 3.6%
- Medication Discontinued: Azathioprine/Sulfasalazine/Hydroxychloroquine (patients) ([3]; iFM patients): 9/9
- Medication Discontinued: NSAIDs (patients) ([3]; iFM patients): 4/7
- Δ Pred., prednisone dose after adding Etanercept ([3]; iFM patients (17), before 7.3): 7.3 → 0.4 mg/d
- Δ MTX, methotrexate dose after adding Etanercept ([3]; iFM patients (17), before 19.7): 19.7 → 0.0 mg/wk
- MTX abs (absolute change of methotrexate use) ([4]; 18 months, Active FM (N 6)): (6) +0.8 mg
- Pred abs (absolute change of steroid use) ([4]; 18 months, Active FM (N 9)): (9) −7.15 mg
- Joint count abs (absolute change) ([4]; 18 months, Active FM (N 10)): (10) −10.95
- MTX abs (absolute change of methotrexate use) ([4]; 18 months, Inactive FM (N 9)): (9) −20.1 mg
- Pred abs (absolute change of steroid use) ([4]; 18 months, Inactive FM (N 13)): (13) −7.92 mg
- Joint count abs (absolute change) ([4]; 18 months, Inactive FM (N 23)): (23) −8.98
- MTX abs (absolute change of methotrexate use) ([4]; 18 months, No FM (N 16), p 0.0002 across groups): (16) −17.5 mg
- Pred abs (absolute change of steroid use) ([4]; 18 months, No FM (N 19), p 0.8649 across groups): (19) −7.32 mg
- Joint count abs (absolute change) ([4]; 18 months, No FM (N 28), p 0.5685 across groups): (28) −11.54
- JC2, number of swollen tender joints, mean ([4]; patients converted from active FM to inactive FM, 12 months, study entry 9.1): 4.6 # tender joints
- Pred2, Pred used, mean ([4]; patients converted from active FM to inactive FM, 12 months, study entry 10.5): 5.5 mg
- MTX2, methotrexate used, mean ([4]; patients converted from active FM to inactive FM, 12 months, study entry 17.5): 0 mg
- JC3, number of swollen tender joints, mean ([4]; patients converted from active FM to inactive FM, 18 months, study entry 9.1): 0 # tender joints
- Pred3, Pred used, mean ([4]; patients converted from active FM to inactive FM, 18 months, study entry 10.5): 1.8 mg
- MTX3, methotrexate used, mean ([4]; patients converted from active FM to inactive FM, 18 months, study entry 17.5): 0 mg
- Prednisone dose reached [5]: 15 mg qd
